In one series the test system is RET. The note with it: estimated; cited from earlier work.
For the next series, the target named is T1, aldehyde oxidase (Homo sapiens, UniProt Q06278).
T1 construct: purchased Gentest Corp., Woburn, MA, USA; host or cells: insect cells (baculovirus)
T1 sequence (Q06278 1-1338): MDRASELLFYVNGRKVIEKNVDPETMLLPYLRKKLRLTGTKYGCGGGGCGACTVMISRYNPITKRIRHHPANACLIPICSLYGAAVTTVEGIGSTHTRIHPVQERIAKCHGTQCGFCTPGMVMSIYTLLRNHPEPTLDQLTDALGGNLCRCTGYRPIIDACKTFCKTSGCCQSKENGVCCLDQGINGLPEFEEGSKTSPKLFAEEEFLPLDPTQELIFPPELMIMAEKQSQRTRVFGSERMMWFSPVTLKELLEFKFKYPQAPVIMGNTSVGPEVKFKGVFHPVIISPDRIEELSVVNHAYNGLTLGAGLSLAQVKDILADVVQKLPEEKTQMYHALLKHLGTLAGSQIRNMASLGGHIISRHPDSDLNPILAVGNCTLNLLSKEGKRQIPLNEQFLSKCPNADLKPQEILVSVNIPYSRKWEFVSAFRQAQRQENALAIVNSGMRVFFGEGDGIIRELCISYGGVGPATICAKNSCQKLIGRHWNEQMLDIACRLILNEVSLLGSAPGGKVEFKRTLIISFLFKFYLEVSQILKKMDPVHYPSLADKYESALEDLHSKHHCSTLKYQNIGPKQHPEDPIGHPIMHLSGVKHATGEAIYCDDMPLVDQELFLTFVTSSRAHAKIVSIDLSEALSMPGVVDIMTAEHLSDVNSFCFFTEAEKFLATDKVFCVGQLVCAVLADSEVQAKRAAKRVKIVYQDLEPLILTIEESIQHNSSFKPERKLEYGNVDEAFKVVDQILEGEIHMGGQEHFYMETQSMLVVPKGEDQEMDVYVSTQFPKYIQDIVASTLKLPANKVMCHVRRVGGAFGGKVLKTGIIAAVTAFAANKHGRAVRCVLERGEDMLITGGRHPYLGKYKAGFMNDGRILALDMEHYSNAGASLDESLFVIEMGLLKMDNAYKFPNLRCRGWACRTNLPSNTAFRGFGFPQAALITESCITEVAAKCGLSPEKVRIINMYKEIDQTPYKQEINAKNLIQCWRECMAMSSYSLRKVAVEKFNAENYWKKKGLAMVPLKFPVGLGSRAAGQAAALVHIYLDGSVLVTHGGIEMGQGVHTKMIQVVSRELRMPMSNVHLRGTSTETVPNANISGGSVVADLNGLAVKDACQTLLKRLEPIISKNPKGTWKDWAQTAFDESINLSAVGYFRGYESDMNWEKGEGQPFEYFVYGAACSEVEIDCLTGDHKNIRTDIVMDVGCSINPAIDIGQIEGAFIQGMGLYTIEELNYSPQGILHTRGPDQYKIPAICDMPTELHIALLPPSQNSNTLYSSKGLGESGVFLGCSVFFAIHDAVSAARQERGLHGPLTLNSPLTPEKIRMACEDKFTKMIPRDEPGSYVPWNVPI
The series is described as follows: Oxidation of cabozantinib by recombinant aldehyde oxidase. It is filed as in vitro ADME. The note with it: human recombinant enzyme, data not shown.

On the set-up of series [1]: method as in earlier work. Conditions: cited from earlier work.
Another series deals with T2, FMO3 (Homo sapiens, UniProt P31513).
T2 construct: purchased Gentest Corp., Woburn, MA, USA; host or cells: insect cells (baculovirus)
T2 sequence (P31513 1-532): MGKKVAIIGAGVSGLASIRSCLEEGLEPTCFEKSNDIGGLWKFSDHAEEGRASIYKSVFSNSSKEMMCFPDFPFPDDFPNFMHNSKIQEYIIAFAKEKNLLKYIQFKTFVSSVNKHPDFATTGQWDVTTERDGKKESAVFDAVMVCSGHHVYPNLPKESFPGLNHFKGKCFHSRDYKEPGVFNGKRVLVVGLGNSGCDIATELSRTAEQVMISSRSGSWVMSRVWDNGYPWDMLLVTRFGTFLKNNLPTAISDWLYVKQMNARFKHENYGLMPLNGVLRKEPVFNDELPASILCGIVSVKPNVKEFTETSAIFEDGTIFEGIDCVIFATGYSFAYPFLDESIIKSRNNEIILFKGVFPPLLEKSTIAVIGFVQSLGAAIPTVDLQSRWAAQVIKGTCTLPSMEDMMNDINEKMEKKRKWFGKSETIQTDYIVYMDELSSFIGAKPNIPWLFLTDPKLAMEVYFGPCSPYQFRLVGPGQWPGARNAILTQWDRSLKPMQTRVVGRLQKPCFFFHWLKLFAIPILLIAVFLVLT
The series is described as follows: Oxidation of cabozantinib by recombinant FMO3. In kind it is in vitro ADME. Conditions: human recombinant enzyme, data not shown.

A further series concerns MET. Conditions: read-out: IC50 for MET; estimated; cited from earlier work.
Another series relates to VEGFR2. Conditions: read-out: IC50 for VEGFR2; estimated; cited from earlier work.

The text below walks through data of publication PMC7759869 (Biomedicines, 2020).

As to `COc1cc2nccc(Oc3ccc(NC(=O)C4(C(=O)Nc5ccc(F)cc5)CC4)cc3)c2cc1OC` [cabozantinib, N′1-{4-[(6,7-dimethoxyquinolin-4-yl)oxy]phenyl}-N1-(4-fluorophenyl)cyclopropane-1,1-dicarboxamide], the values for the IC50 in the series with RET, in the series with MET and in the series with VEGFR2 were […], 2 nM and […], respectively. For the same compound, the “Oxidation of cabozantinib by aldehyde oxidase” value at aldehyde oxidase was “ineffective”. The “Bound by proteins in human plasma” value in series [1] is given as not below 99.7%. The “Oxidation of cabozantinib by FMO 3” value on FMO3 is “ineffective”.

For orientation: IC50 means the concentration at which inhibition is half-maximal.
